# Test results from ChEMBL document CHEMBL1201862, “PubChem BioAssay data set” (2004).
# Where “and” joins values, the source holds several entries; their conditions need not be identical. Equal entries are not always repeated.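 Values below derive from 48-hour exposures of cells grown in 96-well plates, with endpoints linearly interpolated between the two concentrations bracketing the appropriate inhibition level. GI50 = concentration required for 50% inhibition of growth.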 Calls of active or inactive are those of the source. No stated cut-off is given here; in the data, active = GI50 up to about 1.1 µM and inactive = higher.
# Legend:
# Assay in all cases: growth of human tumour cells (NCI), 48 h
# SR = test system: SR
# IGROV-1 = test system: IGROV-1
# DMS-114 = test system: DMS-114
# SW-620 = test system: SW-620
# HOP-18 = test system: HOP-18
# M19-MEL = test system: M19-MEL
# SK-MEL-5 = test system: SK-MEL-5
# LOX IMVI = test system: LOX IMVI
# ACHN = test system: ACHN
# HT-29 = test system: HT-29
# LXFL 529 = test system: LXFL 529
# XF498 = test system: XF498
# TK-10 = test system: TK-10
# OVCAR-5 = test system: OVCAR-5
# SN12C = test system: SN12C
# UACC-62 = test system: UACC-62
# OVCAR-8 = test system: OVCAR-8
# SF-539 = test system: SF-539
# OVCAR-4 = test system: OVCAR-4
# NCI-H460 = test system: NCI-H460
# 786-0 = test system: 786-0
# SNB-19 = test system: SNB-19
# DMS-273 = test system: DMS-273
# SNB-78 = test system: SNB-78
# CCRF-CEM = test system: CCRF-CEM
# HCC 2998 = test system: HCC 2998
# KM12 = test system: KM12
# K562 = test system: K562
# SF-295 = test system: SF-295
# UACC-257 = test system: UACC-257
# NCI-H226 = test system: NCI-H226
# SK-OV-3 = test system: SK-OV-3
# SF-268 = test system: SF-268
# UO-31 = test system: UO-31
# EKVX = test system: EKVX
# RPMI-8226 = test system: RPMI-8226
# SNB-75 = test system: SNB-75
# KM-20L2 = test system: KM-20L2
# HCT-15 = test system: HCT-15
# HL-60 = test system: HL-60
# A549 = test system: A549
# M14 = test system: M14
# HOP-62 = test system: HOP-62
# COLO 205 = test system: COLO 205
# RXF 393 = test system: RXF 393
# SK-MEL-28 = test system: SK-MEL-28
# Malme-3M = test system: Malme-3M
# MOLT-4 = test system: MOLT-4
# A498 = test system: A498
# DLD-1 = test system: DLD-1
# HCT-116 = test system: HCT-116
# SK-MEL-2 = test system: SK-MEL-2
# CAKI-1 = test system: CAKI-1
# U-251 = test system: U-251
# NCI-H23 = test system: NCI-H23
# HOP-92 = test system: HOP-92
# NCI-H522 = test system: NCI-H522
# PC-3 = test system: PC-3
# T47D = test system: T47D
# MDA-MB-435 = test system: MDA-MB-435
# MDA-N = test system: MDA-N
# BT-549 = test system: BT-549
# DU-145 = test system: DU-145
# OVCAR-3 = test system: OVCAR-3
# Hs-578T = test system: Hs-578T
# NCI/ADR-RES = test system: NCI/ADR-RES
# RXF 631 = test system: RXF 631
# MCF7 = test system: MCF7
# MDA-MB-231 = test system: MDA-MB-231
compound,measurement,setting,value
NC(N)=NN/C(=C1/N=c2ccc([N+](=O)[O-])cc2=NC1=O)C(O)c1ccco1 (configuration not stated),GI50,SR,> 100 µM (inactive)
same,GI50,IGROV-1,> 100 µM (inactive)
same,GI50,DMS-114,27.5 µM (inactive)
same,GI50,SW-620,> 100 µM (inactive)
same,GI50,HOP-18,> 100 µM (inactive)
same,GI50,M19-MEL,> 100 µM (inactive)
same,GI50,SK-MEL-5,> 100 µM (inactive)
same,GI50,LOX IMVI,> 100 µM (inactive)
same,GI50,ACHN,> 100 µM (inactive)
same,GI50,HT-29,> 100 µM (inactive)
same,GI50,LXFL 529,92.7 µM (inactive)
same,GI50,XF498,> 100 µM (inactive)
same,GI50,TK-10,> 100 µM (inactive)
same,GI50,OVCAR-5,> 100 µM (inactive)
same,GI50,SN12C,> 100 µM (inactive)
same,GI50,UACC-62,> 100 µM (inactive)
same,GI50,OVCAR-8,> 100 µM (inactive)
same,GI50,SF-539,> 100 µM (inactive)
same,GI50,OVCAR-4,> 100 µM (inactive)
same,GI50,NCI-H460,> 100 µM (inactive)
same,GI50,786-0,> 100 µM (inactive)
same,GI50,SNB-19,> 100 µM (inactive)
same,GI50,DMS-273,> 100 µM (inactive)
same,GI50,SNB-78,> 100 µM (inactive)
same,GI50,CCRF-CEM,67.1 µM (inactive)
same,GI50,HCC 2998,> 100 µM (inactive)
same,GI50,KM12,> 100 µM (inactive)
same,GI50,K562,54.3 µM (inactive)
same,GI50,SF-295,> 100 µM (inactive)
same,GI50,UACC-257,> 100 µM (inactive)
same,GI50,NCI-H226,> 100 µM (inactive)
same,GI50,SK-OV-3,> 100 µM (inactive)
same,GI50,SF-268,> 100 µM (inactive)
same,GI50,UO-31,64.7 µM (inactive)
same,GI50,EKVX,> 100 µM (inactive)
same,GI50,RPMI-8226,43.7 µM (inactive)
same,GI50,SNB-75,> 100 µM (inactive)
same,GI50,KM-20L2,> 100 µM (inactive)
same,GI50,HCT-15,> 100 µM
same,GI50,HL-60,35.9 µM (inactive)
same,GI50,A549,> 100 µM (inactive)
same,GI50,M14,> 100 µM (inactive)
same,GI50,HOP-62,> 100 µM (inactive)
same,GI50,COLO 205,> 100 µM (inactive)
same,GI50,RXF 393,> 100 µM (inactive)
same,GI50,SK-MEL-28,> 100 µM (inactive)
same,GI50,Malme-3M,> 100 µM (inactive)
same,GI50,MOLT-4,> 100 µM (inactive)
same,GI50,A498,> 100 µM (inactive)
same,GI50,DLD-1,> 100 µM (inactive)
same,GI50,HCT-116,> 100 µM (inactive)
same,GI50,SK-MEL-2,> 100 µM (inactive)
same,GI50,CAKI-1,> 100 µM (inactive)
same,GI50,U-251,> 100 µM (inactive)
same,GI50,NCI-H23,> 100 µM (inactive)
same,GI50,HOP-92,> 100 µM (inactive)
same,GI50,NCI-H522,32.8 µM (inactive)
CC(C)(O)/C=C/C(=O)[C@](C)(O)[C@H]1[C@H](O)C[C@@]2(C)[C@@H]3CC=C4[C@@H](C=C(O)C(=O)C4(C)C)[C@]3(C)C(=O)C[C@]12C [CUCURBITACIN I],GI50,SR,644 nM (active) and 410 nM (active)
same,GI50,DMS-114,1.21 µM (inactive) and 698 nM (active)
same,GI50,PC-3,0.0238 µM (active)
same,GI50,SW-620,334 nM (active) and 541 nM (active)
same,GI50,T47D,0.104 µM (active)
same,GI50,LOX IMVI,430 nM (active) and 238 nM (active)
same,GI50,HT-29,538 nM (active) and 321 nM (active)
same,GI50,LXFL 529,339 nM (active) and 513 nM (active)
same,GI50,MDA-MB-435,< 0.01 µM (active)
same,GI50,XF498,284 nM (active) and 330 nM (active)
same,GI50,OVCAR-5,3.03 µM (inactive) and 3.24 µM (inactive)
same,GI50,UACC-62,805 nM (active) and 607 nM (active)
same,GI50,OVCAR-8,1.3 µM (inactive) and 2.13 µM (inactive)
same,GI50,MDA-N,< 0.01 µM (active)
same,GI50,NCI-H460,288 nM (active) and 543 nM (active)
same,GI50,BT-549,0.0147 µM (active)
same,GI50,DMS-273,243 nM (active) and 218 nM (active)
same,GI50,SNB-78,303 nM (active) and 528 nM (active)
same,GI50,DU-145,< 0.01 µM (active)
same,GI50,KM12,1.9 µM (inactive) and 1.12 µM (inactive)
same,GI50,K562,841 nM (active) and 504 nM (active)
same,GI50,OVCAR-3,395 nM (active) and 783 nM (active)
same,GI50,UACC-257,324 nM (active) and 555 nM (active)
same,GI50,SF-268,475 nM (active) and 251 nM (active)
same,GI50,Hs-578T,0.0485 µM (active)
same,GI50,EKVX,975 nM (active) and 1.27 µM (inactive)
same,GI50,NCI/ADR-RES,0.126 µM (active)
same,GI50,RPMI-8226,281 nM (active) and 318 nM (active)
same,GI50,KM-20L2,482 nM (active) and 318 nM (active)
same,GI50,A549,493 nM (active) and 271 nM (active)
same,GI50,M14,548 nM (active) and 303 nM (active)
same,GI50,RXF 393,225 nM (active) and 440 nM (active)
same,GI50,Malme-3M,536 nM (active) and 329 nM (active)
same,GI50,MOLT-4,1.88 µM (inactive) and 1.61 µM (inactive)
same,GI50,RXF 631,372 nM (active) and 536 nM (active)
same,GI50,MCF7,0.0245 µM (active)
same,GI50,HCT-116,631 nM (active) and 363 nM (active)
same,GI50,SK-MEL-2,442 nM (active) and 237 nM (active)
same,GI50,MDA-MB-231,0.0223 µM (active)
same,GI50,NCI-H23,2.38 µM (inactive) and 1.33 µM (inactive)
C=C(C)C1CC2=C(O1)C(=O)c1ccccc1C2=O (stereo not drawn) [DEHYDROISO-ALPHA-LAPACHONE],GI50,IGROV-1,20 µM (inactive)
same,GI50,DMS-114,16 µM (inactive)
same,GI50,SW-620,23.6 µM (inactive)
same,GI50,SK-MEL-5,14 µM (inactive)
same,GI50,LOX IMVI,9.18 µM (inactive)
same,GI50,HT-29,20.9 µM (inactive)
same,GI50,LXFL 529,17.2 µM (inactive)
same,GI50,XF498,17.9 µM (inactive)
same,GI50,TK-10,23 µM (inactive)
same,GI50,SN12C,19.1 µM (inactive)
same,GI50,UACC-62,16.1 µM (inactive)
same,GI50,OVCAR-8,17.3 µM (inactive)
same,GI50,SF-539,18.5 µM (inactive)
same,GI50,OVCAR-4,11.3 µM (inactive)
same,GI50,NCI-H460,17.7 µM (inactive)
same,GI50,SNB-19,29.8 µM (inactive)
same,GI50,DMS-273,17.4 µM (inactive)
same,GI50,SNB-78,20.3 µM (inactive)
same,GI50,CCRF-CEM,16.3 µM (inactive)
same,GI50,HCC 2998,19.1 µM (inactive)
same,GI50,KM12,18.3 µM (inactive)
same,GI50,K562,18.6 µM (inactive)
same,GI50,OVCAR-3,18.9 µM (inactive)
same,GI50,UACC-257,13.3 µM (inactive)
same,GI50,NCI-H226,> 10 µM (inactive)
same,GI50,SK-OV-3,> 100 µM (inactive)
same,GI50,EKVX,25.7 µM (inactive)
same,GI50,RPMI-8226,15.1 µM (inactive)
same,GI50,SNB-75,17.6 µM (inactive)
same,GI50,HCT-15,17.9 µM
same,GI50,HL-60,3.38 µM (inactive)
same,GI50,A549,21 µM (inactive)
same,GI50,M14,18.5 µM (inactive)
same,GI50,HOP-62,19.6 µM (inactive)
same,GI50,COLO 205,19.3 µM (inactive)
same,GI50,RXF 393,18.9 µM (inactive)
same,GI50,SK-MEL-28,19 µM (inactive)
same,GI50,MOLT-4,10.6 µM (inactive)
same,GI50,RXF 631,20.3 µM (inactive)
same,GI50,DLD-1,20.8 µM (inactive)
same,GI50,CAKI-1,17.6 µM (inactive)
same,GI50,U-251,16.5 µM (inactive)
same,GI50,NCI-H23,18.9 µM (inactive)
same,GI50,HOP-92,16.3 µM (inactive)
same,GI50,NCI-H522,20.7 µM (inactive)
